Here are results for twelve compounds from ChEMBL document CHEMBL1155851, “Synthesis of some novel imidazole-based dicationic carbazolophanes as potential antibacterials” (2008).

The test system of one assay is Proteus mirabilis. The experiment in a line: Antimicrobial activity against Proteus mirabilis. It counts as functional.
The test system of another assay is Salmonella typhi. The experiment in a line: Antimicrobial activity against Salmonella typhi. It counts as functional, Salmonella enterica subsp. enterica serovar Typhi. The settings on record: Salmonella enterica.
The next assay deals with Proteus vulgaris. Put plainly: Antimicrobial activity against Proteus vulgaris. Type of assay: functional.
The subject of another assay is Pseudomonas aeruginosa. Put plainly: Antimicrobial activity against Pseudomonas aeruginosa. Type of assay: functional.
The test system of assay [1] is Staphylococcus aureus. The experiment in a line: Antimicrobial activity against Staphylococcus aureus. It counts as functional.
Assay [2] has as its system Staphylococcus aureus.

Structures are written as SMILES. In brackets after ≈: the same amount, converted by molar mass. Activity calls are given as the source filed them. The rule behind the calls is not given here.

What is called MIC is the lowest concentration that inhibits growth of the organism. In the case of `CCn1c2ccc3cc2c2cc(ccc21)C(=O)c1ccc(cc1)Cn1c[n+](c2ccccc21)Cc1cc(OC)c(cc1OC)C[n+]1cn(c2ccccc21)Cc1ccc(cc1)C3=O.[Br-].[Br-]`, the MIC was 55 µg/mL against Proteus mirabilis, 40 µg/mL with Salmonella typhi, 45 µg/mL with Proteus vulgaris and 70 µg/mL against Pseudomonas aeruginosa.

On to `CCn1c2ccc3cc2c2cc(ccc21)C(=O)c1ccc(cc1)Cn1c[n+](c2ccccc21)Cc1ccc(cc1)-c1cccc(c1)-c1ccc(cc1)C[n+]1cn(c2ccccc21)Cc1ccc(cc1)C3=O.[Br-].[Br-]`, for which the minimal inhibitory concentration (MIC) in the assay with Proteus mirabilis worked out at 50 µg/mL; against Salmonella typhi, 45 µg/mL; in the assay with Proteus vulgaris, 50 µg/mL; in the assay on Pseudomonas aeruginosa, 65 µg/mL; in the assay on Staphylococcus aureus [1], 45 µg/mL.

On to `CN(C)[C@@H]1C(O)=C(C(N)=O)C(=O)[C@@]2(O)C(O)=C3C(=O)c4c(O)cccc4[C@@](C)(O)[C@H]3C[C@@H]12` [TETRACYCLINE], for which the minimum inhibitory concentration (MIC) against Proteus mirabilis stood at 20 µg/mL (≈ 45 µM); against Salmonella typhi, 15 µg/mL (≈ 33.8 µM); against Proteus vulgaris it was 35 µg/mL (≈ 78.8 µM); with Pseudomonas aeruginosa, 35 µg/mL (≈ 78.8 µM); against Staphylococcus aureus [1], 20 µg/mL (≈ 45 µM).

Consider `CCn1c2ccc3cc2c2cc(ccc21)C(=O)c1ccc(cc1)Cn1cc[n+](c1)Cc1ccc(cc1)C(=O)c1ccc2c(c1)c1cc(ccc1n2CC)C(=O)c1ccc(cc1)C[n+]1ccn(c1)Cc1ccc(cc1)C3=O.[Br-].[Br-]`, for which the minimal inhibitory concentration (MIC) in the assay with Proteus mirabilis was determined as 35 µg/mL; with Salmonella typhi, 25 µg/mL; with Proteus vulgaris, 40 µg/mL; with Pseudomonas aeruginosa, 55 µg/mL; against Staphylococcus aureus [1] it was 25 µg/mL.

Turning to `CCn1c2ccc3cc2c2cc(ccc21)C(=O)c1ccc(cc1)Cn1cc[n+](c1)Cc1cc([N+](=O)[O-])cc(c1O)C[n+]1ccn(c1)Cc1ccc(cc1)C3=O.[Br-].[Br-]`, the MIC worked out at 20 µg/mL against Proteus mirabilis; 20 µg/mL against Salmonella typhi; 30 µg/mL against Proteus vulgaris; 35 µg/mL with Pseudomonas aeruginosa; 20 µg/mL against Staphylococcus aureus [1].

Regarding `CCn1c2ccc3cc2c2cc(ccc21)C(=O)c1ccc(cc1)Cn1cc[n+](c1)Cc1cccc(n1)C[n+]1ccn(c1)Cc1ccc(cc1)C3=O.[Br-].[Br-]`, the minimum inhibitory concentration (MIC) in the assay on Proteus mirabilis was found to be 20 µg/mL; in the assay on Salmonella typhi it was 15 µg/mL; in the assay on Proteus vulgaris it was 25 µg/mL; against Pseudomonas aeruginosa, 30 µg/mL; in the assay with Staphylococcus aureus [1], 12 µg/mL.

As for `CCn1c2ccc3cc2c2cc(ccc21)C(=O)c1ccc(cc1)Cn1cc[n+](c1)Cc1ccc(cc1)-c1cccc(c1C(=O)O)-c1ccc(cc1)C[n+]1ccn(c1)Cc1ccc(cc1)C3=O.[Br-].[Br-]`, the minimum inhibitory concentration (MIC) in the assay with Proteus mirabilis came out at 50 µg/mL; with Salmonella typhi it was 35 µg/mL; with Proteus vulgaris it was 65 µg/mL; in the assay on Pseudomonas aeruginosa, 80 µg/mL; in the assay with Staphylococcus aureus [1] it was 35 µg/mL.

For the compound `CCn1c2ccc3cc2c2cc(ccc21)C(=O)c1ccc(cc1)Cn1c[n+](c2ccccc21)Cc1ccc(cc1)-c1cccc(c1C(=O)O)-c1ccc(cc1)C[n+]1cn(c2ccccc21)Cc1ccc(cc1)C3=O.[Br-].[Br-]`, the MIC stood at 55 µg/mL in the assay with Proteus mirabilis, 50 µg/mL against Salmonella typhi, 60 µg/mL in the assay with Proteus vulgaris and 70 µg/mL with Pseudomonas aeruginosa. Further, in the assay on Staphylococcus aureus [2], the MIC result was “inactive”.

For the compound `CCn1c2ccc3cc2c2cc(ccc21)C(=O)c1ccc(cc1)Cn1c[n+](c2ccccc21)Cc1cccc(n1)C[n+]1cn(c2ccccc21)Cc1ccc(cc1)C3=O.[Br-].[Br-]`, the MIC against Proteus mirabilis was 10 µg/mL; against Salmonella typhi, 15 µg/mL; in the assay on Proteus vulgaris, 15 µg/mL; against Pseudomonas aeruginosa it was 20 µg/mL; in the assay with Staphylococcus aureus [1], 8 µg/mL.

Consider `CCn1c2ccc3cc2c2cc(ccc21)C(=O)c1ccc(cc1)Cn1c[n+](c2ccccc21)Cc1cc([N+](=O)[O-])cc(c1O)C[n+]1cn(c2ccccc21)Cc1ccc(cc1)C3=O.[Br-].[Br-]`, for which the MIC worked out at 30 µg/mL in the assay with Proteus mirabilis; 15 µg/mL in the assay on Salmonella typhi; 35 µg/mL against Proteus vulgaris; 30 µg/mL with Pseudomonas aeruginosa; 20 µg/mL against Staphylococcus aureus [1].

As to `CCn1c2ccc3cc2c2cc(ccc21)C(=O)c1ccc(cc1)Cn1cc[n+](c1)Cc1ccc(cc1)-c1cccc(c1)-c1ccc(cc1)C[n+]1ccn(c1)Cc1ccc(cc1)C3=O.[Br-].[Br-]`, the minimal inhibitory concentration (MIC) against Proteus mirabilis amounted to 75 µg/mL; in the assay on Salmonella typhi it was 55 µg/mL; with Proteus vulgaris, 70 µg/mL; in the assay on Pseudomonas aeruginosa it was 75 µg/mL; against Staphylococcus aureus [1] it was 75 µg/mL.

On to `CCn1c2ccc3cc2c2cc(ccc21)C(=O)c1ccc(cc1)Cn1c[n+](c2ccccc21)Cc1ccc(cc1)C(=O)c1ccc2c(c1)c1cc(ccc1n2CC)C(=O)c1ccc(cc1)C[n+]1cn(c2ccccc21)Cc1ccc(cc1)C3=O.[Br-].[Br-]`, for which the MIC with Proteus mirabilis came out at 30 µg/mL; in the assay with Salmonella typhi, 25 µg/mL; in the assay on Proteus vulgaris, 30 µg/mL; in the assay with Pseudomonas aeruginosa it was 35 µg/mL; with Staphylococcus aureus [1], 26 µg/mL.
